In article PMC3796470, “BdorCSP2 Is Important for Antifeed and Oviposition-Deterring Activities Induced by Rhodojaponin-III against Bactrocera dorsalis” (PLoS ONE, 2013) one finds Kd data, which are given here for two molecules.

Experiment [1] deals with T1, BdorCSP2 (Bactrocera dorsalis, UniProt S5TKX2).
T1 construct: gene CSP2; mature BdorCSP2 (signal peptide removed), recombinant from E. coli BL21 (DE3), His-tag-removed; GenBank KC897022
T1 sequence (S5TKX2 23-156): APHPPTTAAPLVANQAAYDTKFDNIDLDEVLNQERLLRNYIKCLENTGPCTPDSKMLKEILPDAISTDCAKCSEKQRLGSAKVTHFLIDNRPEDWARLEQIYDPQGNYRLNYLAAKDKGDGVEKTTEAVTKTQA
Briefly: fluorescent probe titration with Scatchard analysis. The experiment is classed as binding.

Experiment [2] addresses T1, BdorCSP2. In words: competitive fluorescence binding assay, displacement of 1-NPN.

`c1ccc(Nc2cccc3ccccc23)cc1` [N-phenyl-1-naphthylamine]: the Kd at BdorCSP2 [1] came to 2.71 µM.
Molecule `CC1(C)[C@H]2O[C@H]2[C@H]2[C@](C)(O)[C@@H]3CC[C@@H]4[C@@H](O)[C@@]3(C[C@@H](O)[C@@]21O)C[C@@]4(C)O` [Rhodojaponin-III] yielded a Kd on BdorCSP2 [2] of 34.6 µM.

As a reminder, the Kd is the concentration at which binding is half-saturated. Read a low Kd as tighter binding.
